In patent US8993483B2, “Combination of active substances with insecticidal properties” (Bayer Intellectual Property GmbH, priority 2003, dated 2015):

system: caterpillars of the diamond back moth (Plutella xylostella, normally sensitive strain); experiment: Plutella xylostella test (normally sensitive strain; cabbage leaf dip, kill rate); assay type: in vivo; conditions: single active compound, 4 ppm
Excerpt: (§1) The expected action for a given combination of two active compounds can be calculated as follows, according to S. R. Colby, Weeds 15 (1967), 20-22:
(§2) • X is the kill rate, expressed as a percentage of the untreated control, when employing active compound A at an application rate of m g/ha or in a concentration of m ppm, • Y is the kill rate, expressed as a percentage of the untreated control, when employing active compound B at an application rate of n g/ha or in a concentration of n ppm and • E is the kill rate, expressed as a percentage of the untreated control, when employing active compounds A and B at application rates of m and n g/ha or in a concentration of m and n ppm, then
(§3) If the actual insecticidal kill rate exceeds the calculated value, the action of the combination is superadditive, i.e. a synergistic effect is present. In this case, the actually observed kill rate must exceed the value calculated using the above formula for the expected kill rate (E).
Plutella xylostella Test (Normally Sensitive Strain)
(§4) To produce a suitable preparation of active compound, 1 part by weight of active compound is mixed with the stated amounts of solvent and emulsifier, and the concentrate is diluted with emulsifier-containing water to the desired concentration.
Cabbage leaves (Brassica oleracea) are treated by being dipped into the preparation of active compound of the desired concentration and are populated with larvae of caterpillars of the diamond back moth (Plutella xylostella, normally sensitive strain) while the leaves are still moist.
After the desired period of time, the kill in % is determined. 100% means that all caterpillars have been killed; 0% means that none of the caterpillars have been killed. The kill rates determined are calculated using Colby's formula (see sheet 1).

| Compound | Kill rate in % after 6 d, found [%] |
| --- | --- |
| N#C/N=C1\SCCN1Cc1ccc(Cl)nc1 [Ik, thiacloprid] | 0 |

system: caterpillars of the cotton boll worm (Heliothis armigera); experiment: Heliothis armigera test (cabbage leaf dip, kill rate); assay type: in vivo; conditions: single active compound, 4 ppm
Excerpt: as §1, §2, §3, §4
Cabbage leaves (Brassica oleracea) are treated by being dipped into the preparation of active compound of the desired concentration and are populated with caterpillars of the cotton boll worm (Heliothis armigera) while the leaves are still moist.
(§5) After the desired period of time, the kill in % is determined. 100% means that all caterpillars have been killed; 0% means that none of the caterpillars have been killed. The kill rates determined are calculated using Colby's formula (see page 43).

| Compound | Kill rate in % after 6 d, found [%] |
| --- | --- |
| N#C/N=C1\SCCN1Cc1ccc(Cl)nc1 [Ik, thiacloprid] | 25 |

system: caterpillars of the armyworm (Spodoptera frugiperda); experiment: Spodoptera frugiperda test (cabbage leaf dip, kill rate); assay type: in vivo; conditions: single active compound, 4 ppm
Excerpt: as §1, §2, §3
Spodoptera frugiperda Test
as §4
Cabbage leaves (Brassica oleracea) are treated by being dipped into the preparation of active compound of the desired concentration and are populated with caterpillars of the armyworm (Spodoptera frugiperda) while the leaves are still moist.
as §5

| Compound | Kill rate in % after 6 d, found [%] |
| --- | --- |
| N#C/N=C1\SCCN1Cc1ccc(Cl)nc1 [Ik, thiacloprid] | 0 |

system: not given; experiment: not given; conditions: not given

| Compound | melting point [°C] |
| --- | --- |
| Cc1cc(Cl)cc(C(=O)NC(C)C)c1NC(=O)c1cc(OCC(F)(F)F)nn1-c1ncccc1Cl | 217 to 218 |
| CC(C)NC(=O)c1cc(Cl)cc(Cl)c1NC(=O)c1cc(C(F)(F)F)nn1-c1ncccc1Cl | 200 to 201 |
| CC(C)NC(=O)c1cc(Cl)cc(Cl)c1NC(=O)c1cc(OCC(F)(F)F)nn1-c1ncccc1Cl | 232 to 235 |
| CC(C)NC(=O)c1cc(Cl)cc(Cl)c1NC(=O)c1cc(Cl)nn1-c1ncccc1Cl | 197 to 199 |
| CC(C)NC(=O)c1cc(Cl)cc(Cl)c1NC(=O)c1cc(Br)nn1-c1ncccc1Cl | 188 to 190 |
| CCNC(=O)c1cc(Cl)cc(C)c1NC(=O)c1cc(C(F)(F)F)nn1-c1ncccc1Cl | 163 to 164 |
| CCNC(=O)c1cc(Cl)cc(C)c1NC(=O)c1cc(OCC(F)(F)F)nn1-c1ncccc1Cl | 205 to 207 |
| CCNC(=O)c1cc(Cl)cc(C)c1NC(=O)c1cc(Cl)nn1-c1ncccc1Cl | 199 to 200 |
| CNC(=O)c1cc(Cl)cc(C)c1NC(=O)c1cc(OCC(F)(F)F)nn1-c1ncccc1Cl | 207 to 208 |
| CCNC(=O)c1cc(Cl)cc(C)c1NC(=O)c1cc(Br)nn1-c1ncccc1Cl | 194 to 195 |
| CCNC(=O)c1cc(Cl)cc(Cl)c1NC(=O)c1cc(C(F)(F)F)nn1-c1ncccc1Cl | 201 to 202 |
| CCNC(=O)c1cc(Cl)cc(Cl)c1NC(=O)c1cc(Cl)nn1-c1ncccc1Cl | 206 to 208 |
| CCNC(=O)c1cc(Cl)cc(Cl)c1NC(=O)c1cc(Br)nn1-c1ncccc1Cl | 214 to 215 |
| Cc1cc(Cl)cc(C(=O)NC(C)(C)C)c1NC(=O)c1cc(C(F)(F)F)nn1-c1ncccc1Cl | 223 to 225 |
| Cc1cc(Cl)cc(C(=O)NC(C)(C)C)c1NC(=O)c1cc(Cl)nn1-c1ncccc1Cl | 163 to 165 |
| Cc1cc(Cl)cc(C(=O)NC(C)(C)C)c1NC(=O)c1cc(Br)nn1-c1ncccc1Cl | 159 to 161 |
| CC(C)(C)NC(=O)c1cc(Cl)cc(Cl)c1NC(=O)c1cc(C(F)(F)F)nn1-c1ncccc1Cl | 170 to 172 |
| CC(C)(C)NC(=O)c1cc(Cl)cc(Cl)c1NC(=O)c1cc(Cl)nn1-c1ncccc1Cl | 172 to 173 |
| CC(C)(C)NC(=O)c1cc(Cl)cc(Cl)c1NC(=O)c1cc(Br)nn1-c1ncccc1Cl | 179 to 180 |
| CNC(=O)c1cc(Cl)cc(C)c1NC(=O)c1cc(Cl)nn1-c1ncccc1Cl | 225 to 226 |
| CNC(=O)c1cc(Br)cc(C)c1NC(=O)c1cc(C(F)(F)F)nn1-c1ncccc1Cl | 222 to 223 |
| CCNC(=O)c1cc(Br)cc(C)c1NC(=O)c1cc(C(F)(F)F)nn1-c1ncccc1Cl | 192 to 193 |

| Compound | melting point [°C] |
| --- | --- |
| Cc1cc(Br)cc(C(=O)NC(C)C)c1NC(=O)c1cc(C(F)(F)F)nn1-c1ncccc1Cl | 197 to 198 |
| Cc1cc(Br)cc(C(=O)NC(C)(C)C)c1NC(=O)c1cc(C(F)(F)F)nn1-c1ncccc1Cl | 247 to 248 |
| CNC(=O)c1cc(Br)cc(C)c1NC(=O)c1cc(Cl)nn1-c1ncccc1Cl | 140 to 141 |
| CCNC(=O)c1cc(Br)cc(C)c1NC(=O)c1cc(Cl)nn1-c1ncccc1Cl | 192 to 194 |
| Cc1cc(Br)cc(C(=O)NC(C)C)c1NC(=O)c1cc(Cl)nn1-c1ncccc1Cl | 152 to 153 |
| Cc1cc(Br)cc(C(=O)NC(C)(C)C)c1NC(=O)c1cc(Cl)nn1-c1ncccc1Cl | 224 to 225 |
| CNC(=O)c1cc(Br)cc(C)c1NC(=O)c1cc(Br)nn1-c1ncccc1Cl | 147 to 149 |
| CCNC(=O)c1cc(Br)cc(C)c1NC(=O)c1cc(Br)nn1-c1ncccc1Cl | 194 to 196 |
| Cc1cc(Br)cc(C(=O)NC(C)C)c1NC(=O)c1cc(Br)nn1-c1ncccc1Cl | 185 to 187 |
| Cc1cc(Br)cc(C(=O)NC(C)(C)C)c1NC(=O)c1cc(Br)nn1-c1ncccc1Cl | 215 to 221 |
| CNC(=O)c1cc(I)cc(C)c1NC(=O)c1cc(C(F)(F)F)nn1-c1ncccc1Cl | 199 to 200 |
| CCNC(=O)c1cc(I)cc(C)c1NC(=O)c1cc(C(F)(F)F)nn1-c1ncccc1Cl | 199 to 200 |
| Cc1cc(I)cc(C(=O)NC(C)C)c1NC(=O)c1cc(C(F)(F)F)nn1-c1ncccc1Cl | 188 to 189 |
| Cc1cc(I)cc(C(=O)NC(C)(C)C)c1NC(=O)c1cc(C(F)(F)F)nn1-c1ncccc1Cl | 242 to 243 |
| CNC(=O)c1cc(I)cc(C)c1NC(=O)c1cc(Cl)nn1-c1ncccc1Cl | 233 to 234 |
| CCNC(=O)c1cc(I)cc(C)c1NC(=O)c1cc(Cl)nn1-c1ncccc1Cl | 196 to 197 |
| Cc1cc(I)cc(C(=O)NC(C)C)c1NC(=O)c1cc(Cl)nn1-c1ncccc1Cl | 189 to 190 |
| Cc1cc(I)cc(C(=O)NC(C)(C)C)c1NC(=O)c1cc(Cl)nn1-c1ncccc1Cl | 228 to 229 |
| CNC(=O)c1cc(Cl)cc(Cl)c1NC(=O)c1cc(C(F)(F)F)nn1-c1ncccc1Cl | 155 to 157 |
| CNC(=O)c1cc(I)cc(C)c1NC(=O)c1cc(Br)nn1-c1ncccc1Cl | 229 to 230 |
| Cc1cc(I)cc(C(=O)NC(C)C)c1NC(=O)c1cc(Br)nn1-c1ncccc1Cl | 191 to 192 |
| CNC(=O)c1cc(Br)cc(Br)c1NC(=O)c1cc(C(F)(F)F)nn1-c1ncccc1Cl | 162 to 163 |

| Compound | melting point [°C] |
| --- | --- |
| CCNC(=O)c1cc(Br)cc(Br)c1NC(=O)c1cc(C(F)(F)F)nn1-c1ncccc1Cl | 188 to 189 |
| CC(C)NC(=O)c1cc(Br)cc(Br)c1NC(=O)c1cc(C(F)(F)F)nn1-c1ncccc1Cl | 192 to 193 |
| CC(C)(C)NC(=O)c1cc(Br)cc(Br)c1NC(=O)c1cc(C(F)(F)F)nn1-c1ncccc1Cl | 246 to 247 |
| CNC(=O)c1cc(Br)cc(Br)c1NC(=O)c1cc(Cl)nn1-c1ncccc1Cl | 188 to 190 |
| CCNC(=O)c1cc(Br)cc(Br)c1NC(=O)c1cc(Cl)nn1-c1ncccc1Cl | 192 to 194 |
| CC(C)NC(=O)c1cc(Br)cc(Br)c1NC(=O)c1cc(Cl)nn1-c1ncccc1Cl | 197 to 199 |
| CC(C)(C)NC(=O)c1cc(Br)cc(Br)c1NC(=O)c1cc(Cl)nn1-c1ncccc1Cl | 210 to 212 |
| CNC(=O)c1cc(Cl)cc(Cl)c1NC(=O)c1cc(OCC(F)(F)F)nn1-c1ncccc1Cl | 192 to 195 |
| CNC(=O)c1cc(Br)cc(Br)c1NC(=O)c1cc(Br)nn1-c1ncccc1Cl | 166 to 168 |
| CCNC(=O)c1cc(Br)cc(Br)c1NC(=O)c1cc(Br)nn1-c1ncccc1Cl | 196 to 197 |
| CC(C)NC(=O)c1cc(Br)cc(Br)c1NC(=O)c1cc(Br)nn1-c1ncccc1Cl | 162 to 163 |
| CC(C)(C)NC(=O)c1cc(Br)cc(Br)c1NC(=O)c1cc(Br)nn1-c1ncccc1Cl | 194 to 196 |
| CC(C)(C)NC(=O)c1cc(Br)cc(Cl)c1NC(=O)c1cc(C(F)(F)F)nn1-c1ncccc1Cl | 143 to 145 |
| CN(C)C(=O)c1cc(Br)cc(Br)c1NC(=O)c1cc(Cl)nn1-c1ncccc1Cl | 153 to 155 |
| Cc1cc(Br)cc(C(=O)N(C)C)c1NC(=O)c1cc(C(F)(F)F)nn1-c1ncccc1Cl | 207 to 208 |
| CN(C)C(=O)c1cc(Cl)cc(Cl)c1NC(=O)c1cc(Cl)nn1-c1ncccc1Cl | 231 to 232 |
| CN(C)C(=O)c1cc(Br)cc(Br)c1NC(=O)c1cc(Br)nn1-c1ncccc1Cl | 189 to 190 |
| CN(C)C(=O)c1cc(Cl)cc(Cl)c1NC(=O)c1cc(Br)nn1-c1ncccc1Cl | 216 to 218 |
| CNC(=O)c1cc(Cl)cc(Cl)c1NC(=O)c1cc(Cl)nn1-c1ncccc1Cl | 205 to 206 |
| CN(C)C(=O)c1cc(Cl)cc(Cl)c1NC(=O)c1cc(C(F)(F)F)nn1-c1ncccc1Cl | 225 to 227 |
| CN(C)C(=O)c1cc(Br)cc(Br)c1NC(=O)c1cc(C(F)(F)F)nn1-c1ncccc1Cl | 228 to 229 |
| CNC(=O)c1cc(Cl)cc(Cl)c1NC(=O)c1cc(Br)nn1-c1ncccc1Cl | 245 to 246 |
